Several values for one entry are separate records, joined by “and”; a condition that tells them apart may be missing. Identical values can stand only once. Like-named read-outs stand apart in the source and are kept apart here.
How the values were obtained:
[1] = system: Dd2-Polδ clones C22-1.1 and C22-2.1; assay: Dose-response assay on compound 22-selected clones (cross-resistance); assay type: cell-based, Plasmodium falciparum
Protocol: Resistance selections were performed using a mutator parasite line Dd2-Polδ with an elevated mutation rate. Three independent flasks with either 1×10^8 or 1×10^9 parasites each were treated with 5×IC50, and parasite death was monitored by microscopy (Giemsa staining). […] After eight days, compounds were removed from the media and the media was changed on alternate days. […] For recrudescent cultures, compound susceptibility was determined by dose-response assays. Parasite clones were obtained by limiting dilution and harvested for genomic DNA extraction, followed by whole-genome sequencing.
(§1) Compound dose-response assays were performed in flat-bottom 96-well plates. Tightly synchronized ring-stage parasites were diluted to 1% parasitemia at 2% hematocrit, and incubated with a two-fold serial dilution of compounds in complete medium. Untreated parasites or uninfected RBCs were included in the assay plate as controls. Parasite growth was assessed after 72 h by lysing parasites using 2× lysis buffer consisting of 10 mM Tris-HCl, 5 mM EDTA, 0.1% w/v saponin, and 1% v/v Triton X-100, supplemented with 2× SYBR Green I (Molecular Probes). The fluorescence was measured using a FluorStar Omega v5.11 plate reader. IC50 analysis was performed using GraphPad Prism v9, and statistical significance was determined by a two-sided Mann-Whitney U test. All assays were performed in technical duplicate with at least three biological replicates, as noted in the figure legends.

S. mansoni schistosomula = system: S. mansoni schistosomula; set-up: method as in Padalino et al. [13]; details: ref Padalino et al. [13], cited from earlier work
P. falciparum 3D7 = assay: Compound dose-response assay (72 h, SYBR Green I), 3D7; assay type: cell-based, Plasmodium falciparum; details: for Selectivity index HepG2/3D7: HepG2 72 h CC50 / Pf 3D7 IC50; for IC50: 72 h, asexual blood stage; for Change of anti-plasmodial activity relative to compound 22: 3D7 and Dd2
Protocol: (§2) P. falciparum parasites were cultured at 3% hematocrit in RPMI 1640 (Gibco) medium consisting of 0.5% Albumax II (Gibco), 25 mM HEPES (Sigma), 0.21% sodium bicarbonate, 1x GlutaMAX (Gibco), 25 μg/mL gentamicin (Gibco). A tri-gas mixture (1% O2, 3% CO2, and 96% N2) was used for parasite cultures. Parasites were synchronized using a sorbitol and Percoll density gradient method. The following parasite strains were used: 3D7, Dd2 (MR4, MRA-156, T. Wellems), GB4 (MR4, MRA-925, T. Wellems), UG659 (P. Rosenthal), Tanzania (MR4, MRA-1169, Michal Fried), Cam/PH0212C (R. Fairhurst), and Cam3.II/ PH0306-C (R. Fairhurst). Transfection was performed using ring-stage parasites (5–8% parasitemia) using a Gene Pulser Xcell (Biorad) electroporator.
as §1

HepG2 cells = system: HepG2 cells; set-up: method as in Padalino et al. [13]; details: ref Padalino et al. [13], cited from earlier work
P. falciparum Dd2 = assay: Compound dose-response assay (72 h, SYBR Green I), Dd2; assay type: cell-based, Plasmodium falciparum; details: for Selectivity index HepG2/Dd2: HepG2 72 h CC50 / Pf Dd2 IC50; for IC50: Plasmodium falciparum, DD2, 72 h, 72 h, asexual blood stage
Protocol: as §2, §1

β-hematin formation = assay: Detergent-based β-hematin inhibition assay; assay type: biochemical; details: cell-free, NP40 detergent, pH 4.8
Protocol: From this stock 40 μL of each was delivered to wells in the final column (column 12) of a 96-well plate together with distilled water (120 μL) and NP40 detergent (305.5 mM, 40 μL). […] A serial dilution of each compound (100 μL) from column 12 to column 2 was carried out. Column 1 served as a blank with 0 mM sample. A 25 mM hematin stock solution was prepared by sonicating hemin in DMSO for one minute and then suspending 179 μL of this in a 1 M acetate buffer (20 mL, pH 4.8). […] The plate was covered and incubated at 37°C for 5 h. […] Acetone (60 μL) was then added to assist with hematin dispersion. The UV-vis absorbance of the plate wells was read on a SpectraMax […] plate reader.

[2] = system: P. falciparum PfQRP1 mutants (G1612V, D1863Y, D1829*, D1829A); assay: Dose-response assay on CRISPR-edited PfQRP1 mutant lines; assay type: cell-based, Plasmodium falciparum
Protocol: To generate the PfQRP1 hydrolase mutants (D1829stop and D1829A), the pDC2-Cas9-gRNA-donor plasmid was transfected into the P. falciparum Dd2 line. Donor plasmid (50 µg) containing the sgRNA ([…]) and a pfqrp1 homology region of 672 bp, centred on the D1829 residue, was used for transfection. Transfectants were selected using 5 nM WR99210 (a potent inhibitor of P. falciparum dihydrofolate reductase (DHFR) provided by Jacobus Pharmaceuticals) for 8 days, followed by culturing without drug until parasites were observed. Parasite clones were obtained using limiting dilution cloning. Confirmation of gene editing was performed with allele-specific PCR (forward primer […] and reverse primer […]) and Sanger sequencing using an internal primer ([…]).
as §1

[3] = system: 3D7 parasites (hemoglobin, 'free' heme, hemozoin); assay: Cellular heme fractionation assay; assay type: cell-based, Plasmodium falciparum; details: 3D7, 0.5 – 2.5× IC50, 30 h
Description: Cellular heme fractionation to measure the amounts of different heme species was thereafter conducted as previously described. […] Pellets were then resuspended in 1× PBS (pH 7.5) and an aliquot of the trophozoite suspension used to quantify the total number of trophozoites isolated using flow cytometry. Contents of the remaining trophozoite pellet were then released by hypotonic lysis and sonication. […] The UV−visible spectrum of each heme fraction as an Fe(III)heme−pyridine complex was measured using a multi-well plate reader (Spectramax 340PC; Molecular Devices). The total amount of each heme species was quantified using a heme standard curve whereby the mass of each heme-Fe species per trophozoite (fg/cell) was calculated by dividing the total amount of each heme species by the corresponding number of parasites in that fraction as determined by flow cytometry. Statistical comparisons and analyses for trends were made on GraphPad Prism version 10 using Students’ t-test with Welch correction. The total amount of heme obtained from each fraction was quantified using a standard curve prepared from a 100 μg/mL heme standard solution of hematin (porcine) in 0.3 M NaOH. Serial dilutions of this standard were carried out in a 96-well plate with 100 μL 0.3 M NaOH as a blank. […] The visible spectra of heme as Fe(III)heme-pyridine complex were recorded in a multi-well plate reader. The amount of heme Fe per cell was calculated by dividing the total heme Fe in each fraction by the number of cells determined in each fraction.

[4] = 72 h, read-out: 72 h -phenotype EC50
[5] = average of phenotype and motility, read-out: Average EC50
[6] = Plasmodium falciparum, 3D7, 72 h
[7] = HepG2, 24 h, read-out: 24 h CC50
[8] = HepG2, 72 h, read-out: 72 h CC50
[9] = read-out: βH Inhibition IC50, individual biological replicate

| Compound | Shift in IC50 in compound 22-selected clones versus parental Dd2-Polδ [1] | EC50 (S. mansoni schistosomula; [4]) [nM] | EC50 (S. mansoni schistosomula; [5]) [nM] | EC50 (S. mansoni schistosomula; read-out: Motility EC50) [nM] | Selectivity index HepG2/3D7 (P. falciparum 3D7) | IC50 (P. falciparum 3D7; [6]) [nM] | CC50 (HepG2 cells; [7]) [nM] | CC50 (HepG2 cells; [8]) [nM] | Selectivity index HepG2/Dd2 (P. falciparum Dd2) | IC50 (P. falciparum Dd2) [nM] | Change of anti-plasmodial activity relative to compound 22 (P. falciparum 3D7) | IC50 (P. falciparum 3D7) [nM] | IC50 (β-hematin formation; [9]) | Effect of D1829 stop / D1829A PfQRP1 mutation on IC50 [2] | Levels of 'free' heme or hemozoin relative to untreated controls [3] | Loss in potency (P. falciparum 3D7; relative to compound 22) | IC50 (β-hematin formation; mean of two biological replicates, listed as chloroquine, read-out: βH Inhibition IC50, mean) [nM] | IC50 (β-hematin formation; mean of two biological replicates, read-out: βH Inhibition IC50, mean) [nM] |
| --- | --- | --- | --- | --- | --- | --- | --- | --- | --- | --- | --- | --- | --- | --- | --- | --- | --- | --- |
| CNC(=O)CNc1cnc2ccc(-c3ccc(OC)c(OC)c3)cc2n1 [BQR695, 2-[[7-(3,4-dimethoxyphenyl)quinoxalin-2-yl]amino]-N-methylacetamide, reference compound] | no cross resistance |  |  |  |  |  |  |  |  |  |  |  |  |  |  |  |  |  |
| O=[N+]([O-])c1ccc2nc(Nc3ccc(F)c(C(F)(F)F)c3)c(Nc3ccc(F)c(C(F)(F)F)c3)nc2c1 [Compound 32] | modest shift with one of the compound 22-resistant clones | 890 | 720 | 540 | 40.4 | 16.6 | 7750 | 670 | 24.1 | 27.8 |  |  |  |  |  |  |  |  |
| O=C(Nc1ccc2nc(Nc3ccc(Cl)c(Cl)c3)c(Nc3ccc(Cl)c(Cl)c3)nc2c1)c1ccco1 [Compound 22f] |  | 1910 | 1950 | 2000 | 19.8 | 287 ± 3.3 | 14800 | 5690 | 14.9 | 382 | greatly diminished activity | 287 |  |  |  |  |  |  |
| 2-N,3-N-bis[3-(trifluoromethyl)phenyl]quinoxaline-2,3-diamine [MMV665794] |  |  |  |  |  |  |  |  |  |  |  |  | 257000 nM and 217000 nM | less potent | no significant changes |  |  |  |
| O=[N+]([O-])c1ccc2nc(NCCc3ccccc3)c(NCCc3ccccc3)nc2c1 [Compound 37] |  | 2200 | 1840 | 1470 | 20.5 | 220 | 4400 | 4520 | 17.1 | 264 |  |  |  |  |  | ten-fold |  |  |
| C[C@H]1Cc2c([nH]c3cc(Cl)c(F)cc23)[C@@]2(N1)C(=O)Nc1ccc(Cl)cc12 [KAE609] |  |  |  |  |  |  |  |  |  |  |  |  | > 500000 nM |  |  |  |  |  |
| O=[N+]([O-])c1ccc2nc(Nc3ccc(Cl)cc3)c(Nc3ccc(Cl)cc3)nc2c1 [Compound 26] |  | 420 | 410 | 390 | 4.3 | 29.9 | 13000 | 130 | 3.5 | 36.8 |  |  |  |  |  |  |  |  |
| O=[N+]([O-])c1ccc2nc(Nc3cccc(Cl)c3)c(Nc3cccc(Cl)c3)nc2c1 [Compound 25] |  | 1220 | 1260 | 1300 | 10.1 | 57.7 | 6760 | 580 | 9.2 | 63.4 |  |  |  |  |  |  |  |  |
| CC(=O)Nc1ccc2nc(Nc3ccc(Cl)c(Cl)c3)c(Nc3ccc(Cl)c(Cl)c3)nc2c1 [Compound 22c] |  | 3040 | 2910 | 2790 | 58.1 | 79 | 8600 | 4590 | 25.4 | 181 | greatly diminished activity |  |  |  |  |  |  |  |
| O=[N+]([O-])c1ccc2nc(Nc3cccc(C(F)(F)F)c3)c(Nc3cccc(C(F)(F)F)c3)nc2c1 [Compound 30] | modest shift with one of the compound 22-resistant clones | 340 | 380 | 430 | 67.2 | 13.4 | 5850 | 900 | 40.9 | 22 |  |  |  |  |  |  |  |  |
| COc1ccc(Nc2nc3ccc([N+](=O)[O-])cc3nc2Nc2ccc(OC)c(C(F)(F)F)c2)cc1C(F)(F)F [Compound 35] | modest shift with one of the compound 22-resistant clones | 630 | 660 | 690 | 7.4 | 57.8 | 5640 | 430 | 3.8 | 112 |  |  |  |  |  |  |  |  |
| CCN(CC)CCCC(C)Nc1ccnc2cc(Cl)ccc12 (stereo not shown) [Chloroquine, chloroquine] |  |  |  |  |  |  |  |  |  |  |  |  | 16700 nM and 14500 nM |  | significant concentration-dependent increases |  | 16000 | 15600 |

— article PMC11809919, “Quinoxaline-based anti-schistosomal compounds have potent anti-plasmodial activity” (PLOS Pathogens, 2025)
